Experimental data published in the supplement of paper PMC11562712.

Assay: first-order primary biodegradation rate constant k (sorption-corrected, fDis-corrected) (d-1); higher = faster biodegradation
Procedure: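 Modified OECD 309 water-sediment test. River water plus sieved sediment (50 g wet solid/L) from European river segments (DE, CH, ES, EL) was spiked with a mixture of 129 compounds at 1 ug/L each and incubated in the dark at river temperature for 10 days. The water phase was analysed by UHPLC-Orbitrap-MS. The first-order primary biodegradation rate constant k (d-1) is k_observed, corrected for dissipation in sterile sorption controls and divided by the dissolved fraction fDis; it was fitted over 3 replicate incubations. Invalid fits (p > 0.05, n < 5, not available, concentration increase) are excluded.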

[1] = river segment: Germany (DE) H_Contam, incubation temperature 24 °C
[2] = river segment: Germany (DE) T_Contam, incubation temperature 24 °C
[3] = river segment: Greece (EL) A_Contam, incubation temperature 19 °C
[4] = river segment: Greece (EL) G_Pris, incubation temperature 19 °C
[5] = river segment: Greece (EL) L_Contam, incubation temperature 19 °C
[6] = river segment: Spain (ES) B_Contam, incubation temperature 24 °C
[7] = river segment: Spain (ES) C_Contam, incubation temperature 24 °C
[8] = river segment: Spain (ES) L_Contam, incubation temperature 24 °C
[9] = river segment: Switzerland (CH) C_Contam, incubation temperature 17 °C
[10] = river segment: Switzerland (CH) R_Contam, incubation temperature 17 °C
[11] = river segment: Switzerland (CH) U_Contam, incubation temperature 17 °C
[12] = river segment: Switzerland (CH) U_Pris, incubation temperature 17 °C
[13] = river segment: Germany (DE) T_Pris, incubation temperature 24 °C
[14] = river segment: Spain (ES) F_Pris_Salt, incubation temperature 24 °C
[15] = river segment: Greece (EL) G_Contam, incubation temperature 19 °C

SMILES | first-order primary biodegradation rate constant k [1] | first-order primary biodegradation rate constant k [2] | first-order primary biodegradation rate constant k [3] | first-order primary biodegradation rate constant k [4] | first-order primary biodegradation rate constant k [5] | first-order primary biodegradation rate constant k [6] | first-order primary biodegradation rate constant k [7] | first-order primary biodegradation rate constant k [8] | first-order primary biodegradation rate constant k [9] | first-order primary biodegradation rate constant k [10] | first-order primary biodegradation rate constant k [11] | first-order primary biodegradation rate constant k [12] | first-order primary biodegradation rate constant k [13] | first-order primary biodegradation rate constant k [14] | first-order primary biodegradation rate constant k [15]
CCN(CC)CC(=O)Nc1c(C)cccc1C [Lidocaine] | 0.0105 | 0.00344 | 0.0177 | 0.00116 | 0.0298 | 0.0307 | 0.287 | 0.118 | 0.00975 | 0.00379 | 0.0121 | 0.0138 |  |  | 
c1ccc([C@H]2CN3CCSC3=N2)cc1 [Levamisole] |  | 0.512 | 0.193 | 0.133 | 0.21 | 0.0276 | 0.0263 | 0.0585 | 0.0196 | 0.0447 | 0.0845 | 0.0682 | 0.0857 |  | 
CCCOC(=O)c1ccc(O)cc1 [Propylparaben] | 2.67 |  |  |  |  |  | 2.24 | 4.24 |  |  |  |  | 1.42 | 0.275 | 
O=S(=O)(O)NC1CCCCC1 [Cyclamate] | 0.0317 | 0.223 | 0.826 |  | 0.0837 |  | 0.261 | 1.66 | 0.205 | 0.379 | 0.24 | 0.0988 | 0.0464 | 0.0914 | 
CC(C)N(C(=O)CCl)c1ccccc1 [Propachlor] | 0.302 | 0.812 | 0.575 |  | 0.985 | 1.07 | 0.218 | 0.809 | 0.33 | 0.429 | 0.649 | 0.552 | 0.308 | 0.212 | 0.271
COCC(C)N(C(=O)CCl)c1c(C)csc1C (centres undefined) [Dimethenamid] |  | 0.036 | 0.0238 |  | 0.014 |  |  | 0.0244 |  | 0.0163 | 0.0318 | 0.0152 |  |  | 
CNCCC(Oc1ccc(C(F)(F)F)cc1)c1ccccc1 (centres undefined) [Fluoxetine] | 0.797 |  |  |  |  |  |  |  | 0.0571 |  | 4.2 | 2.14 | 3.25 |  | 
Cc1cc(NS(=O)(=O)c2ccc(N)cc2)no1 [Sulfamethoxazole] | 0.0889 | 0.143 | 0.0196 |  | 0.063 |  |  | 1.1 |  |  |  |  |  |  | 0.0964
CC(C(=O)O)c1cccc(C(=O)c2ccccc2)c1 (centres undefined) [Ketoprofen] | 0.108 | 0.441 | 0.537 | 0.36 | 0.285 | 0.235 | 0.269 | 0.368 | 1.07 | 0.829 | 1.21 | 2.62 | 0.226 | 0.0247 | 0.0301
N#Cc1cc(Br)c(O)c(Br)c1 [Bromoxynil] |  | 0.133 |  |  | 0.0249 |  |  | 0.0939 |  |  |  | 0.0852 |  |  | 
CCCCC(CC)COCC(O)CO (centres undefined) [3-((2-Ethylhexyl)oxy)propane-1,2-diol] | 1.43 |  | 0.277 |  | 5.22 |  |  | 0.469 | 6.13 | 0.288 | 0.0899 |  |  |  | 1.93
COc1c(Cl)ccc(Cl)c1C(=O)O [Dicamba] |  | 0.109 |  |  |  |  |  | 0.229 | 0.0368 |  | 0.0133 | 0.1 |  | 0.107 | 
CC(C)c1ccc(NC(=O)N(C)C)cc1 [Isoproturon] | 0.0107 | 0.0814 | 0.072 | 0.111 | 0.0309 |  | 0.0102 | 0.0402 |  |  | 0.0187 | 0.0209 |  |  | 
CC1=CC(=O)NS(=O)(=O)O1 [Acesulfame] |  |  | 0.191 |  |  | 1.27 | 0.157 | 0.293 |  | 0.0997 |  |  |  |  | 
CCOC(=O)C1CC(=O)C(=C(O)C2CC2)C(=O)C1 (centres undefined) [Trinexapac-ethyl] | 0.0565 | 0.461 | 0.435 | 0.252 | 0.256 | 0.337 | 0.0822 | 0.373 | 0.0493 | 0.149 | 0.178 | 0.195 | 0.0811 |  | 0.0205
